Test results from article PMC11758220, “Identification of a Privileged Scaffold for Inhibition of Sterol Transport Proteins through the Synthesis and Ring Distortion of Diverse, Pseudo-Natural Products” (ACS Central Science, 2025).

How the values were obtained:
Assay type in all cases: binding
Conditions in all cases: single dose, Dose = 10 µM
Aster-C = target: T1, Aster-C (Homo sapiens, UniProt Q8IYS0); experiment: Fluorescence polarisation (FP) competition with NBD-cholesterol, Aster-C
T1 construct: -C(318-504); GST (PreScission-cleavable) (N, cleaved yes); made in house; host or cells: E. coli OverExpress C41
T1 sequence (Q8IYS0 318-504): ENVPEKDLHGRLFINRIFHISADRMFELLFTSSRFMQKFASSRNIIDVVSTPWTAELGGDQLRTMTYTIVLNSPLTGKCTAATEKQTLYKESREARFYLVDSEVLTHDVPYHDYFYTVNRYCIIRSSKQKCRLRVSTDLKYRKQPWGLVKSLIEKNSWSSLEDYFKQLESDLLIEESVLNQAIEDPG
Text: (§1) Protein expression constructs
(§2) Human ASTER domains of Aster-A(359-547), -B(364-552) and -C(318-504) were subcloned into a pGEX-6p-2rbs vector, thus introducing the cloning artifact ‘GPLGS’.3 The pGEX-6P-1-GST-OSBP(377- […]
(§3) a gift from James H. Hurley (University of California).4 The pHIS_2His6_Thrombin_STARD4(2-205;C75S) plasmid was a gift from Young Jun Im (Chonnam National University).5 STARD5A was a gift from Nicola Burgess-Brown (Addgene plasmid #42392; http://n2t.net/addgene:42392; […]
(§4) Protein expression and purification […]
(§5) vectors including an N-terminal PreScission-cleavable glutathione S-transferase (GST)-tag were expressed in Escherichia coli (E. coli) OverExpress C41 in Terrific Broth (TB) medium for 16 h at 18 °C after the induction with 0.1 mM isopropyl β-D-1-thiogalactopyranoside (IPTG). Cells were harvested at 3500 × g for 15 minutes and lysed by sonication in buffer containing 50 mM HEPES pH 7.5, 300 mM NaCl, 10 %v/v glycerol, 5 mM dithiothreitol (DTT), 0.1 %v/v Triton X-100 and protease inhibitor mix HP plus (Serva). The lysate was purified by affinity chromatography on a GSTrap FF column (Cytiva) using an ÄKTA Start (Cytiva) in buffer containing 50 mM HEPES pH 7.5, 300 mM NaCl, 10 %v/v glycerol, 5 mM DTT and 0.01 %v/v Triton X-100. The GST-tag was cleaved overnight on the column at 4 °C. The Aster sterol binding domains were further purified by size-exclusion chromatography (SEC) on a HiLoad 16/600 Superdex 75 pg (Cytiva) in buffer containing 20 mM HEPES pH 7.5, 300 mM NaCl, 10 %v/v […]
(§6) STARD5(6-213) harboring an N-terminal His6-Tag were expressed in E. coli BL21(DE3) in Luria-Bertani Broth (LB) medium for approximately 16 h at 18 °C after induction with 0.15 mM IPTG. Cells were harvested at 3500 × g for 15 minutes and lysed by sonication in buffer containing 50 mM HEPES pH 7.5, 150 mM NaCl, 5 %v/v glycerol, 5 mM DTT, 0.1 %v/v Triton X -100 and ethylenediaminetetraacetic acid (EDTA)-free protease inhibitor cocktail (Sigma-Aldrich). The cleared lysate was purified by affinity chromatography on a Ni-NTA Superflow Cartridge (Qiagen) using an ÄKTA Start (Cytiva) in buffer containing 50 mM HEPES pH 7.5, 150 mM NaCl, 5 %v/v glycerol, 5 mM DTT. START domains were eluted by using elution buffer containing 50 mM HEPES pH 7.5, 150 mM NaCl, 5 %v/v glycerol, 5 mM DTT and 500 mM imidazole. Proteins were further purified by SEC on a HiLoad 16/600 Superdex 75 pg (Cytiva) in buffer containing 20 mM HEPES pH 7.5, 150 mM NaCl, 5 %v/v glycerol and 2 mM DTT.
(§7) The ORP domain of human OSBP(377-807) in the pGEX-6p-1 vector with an N-terminal PreScission-cleavable GST-tag was expressed in E. coli OverExpress C41 in LB medium for 16 h at 18 °C after induction with 0.1 mM IPTG. Cells were harvested at 3500 × g for 15 minutes and lysed by sonication in buffer containing 20 mM HEPES pH 7.5, 300 mM NaCl, 10 %v/v glycerol, 5 mM DTT, 0.1 %v/v Triton X-100 and EDTA-free protease inhibitor cocktail (Sigma-Aldrich). The cleared lysate was purified by affinity chromatography on a GSTrap HF column (Cytiva) using an ÄKTA Start (Cytiva) in buffer containing 20 mM HEPES pH 7.5, 300 mM NaCl, 10 %v/v glycerol, 5 mM DTT. OSBP(377 -807) was eluted by using elution buffer containing 20 mM HEPES pH 7.5, 300 mM NaCl, 10 %v/v glycerol, 5 mM DTT and 10 mM reduced glutathione. Proteins were further purified by SEC on a HiLoad 16/600 Superdex 75 pg (Cytiva) using an ÄKTA Explorer (Cytiva) in buffer containing 20 mM HEPES pH 7.5, 150 mM NaCl, 10 %v/v glycerol and 2 mM DTT.
(§8) The ORP domains of human ORP1(534-950) in pET24b(+) and ORP2(49-480) in the pET24b(+) vector including an N-terminal His6-Tag were expressed in E. coli BL21(DE3) in TB medium for approximately 16 h at 18 °C after induction with 0.1 mM IPTG. Cells were collected at 3500 × g for 15 minutes and lysed by sonification in buffer containing 10 mM Tris-HCl pH 8, 300 mM NaCl, 5 % glycerol, 2 mM DTT, 0.1 % Triton X-100 and EDTA-free protease inhibitor cocktail (Sigma-Aldrich). The cleared […]

ORP1 = target: T2, ORP1 (Homo sapiens, UniProt Q9BXW6); experiment: Fluorescence polarisation (FP) competition with NBD-cholesterol, ORP1
T2 construct: ORP1(534-950); host or cells: E. coli BL21(DE3)
T2 sequence (Q9BXW6 534-950): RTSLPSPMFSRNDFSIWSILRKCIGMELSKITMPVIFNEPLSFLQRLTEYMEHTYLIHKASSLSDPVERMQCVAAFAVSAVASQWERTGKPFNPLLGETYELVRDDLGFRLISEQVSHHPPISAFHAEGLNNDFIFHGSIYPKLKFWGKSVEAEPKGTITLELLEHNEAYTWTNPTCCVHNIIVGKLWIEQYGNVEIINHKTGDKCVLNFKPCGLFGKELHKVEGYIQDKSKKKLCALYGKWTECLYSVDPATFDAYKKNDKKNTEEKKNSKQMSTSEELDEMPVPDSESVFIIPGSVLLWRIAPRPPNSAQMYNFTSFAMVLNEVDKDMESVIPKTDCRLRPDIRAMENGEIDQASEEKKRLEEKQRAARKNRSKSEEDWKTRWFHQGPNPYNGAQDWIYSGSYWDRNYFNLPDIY
Text: as §1, §2, §3, §4, §5, §6, §7, §8

STARD1 = target: T3, STARD1 (Homo sapiens, UniProt P49675); experiment: Fluorescence polarisation (FP) competition with NBD-cholesterol, STARD1
T3 construct: STARD1(66-284); made in house; host or cells: E. coli BL21(DE3)
T3 sequence (P49675 66-284): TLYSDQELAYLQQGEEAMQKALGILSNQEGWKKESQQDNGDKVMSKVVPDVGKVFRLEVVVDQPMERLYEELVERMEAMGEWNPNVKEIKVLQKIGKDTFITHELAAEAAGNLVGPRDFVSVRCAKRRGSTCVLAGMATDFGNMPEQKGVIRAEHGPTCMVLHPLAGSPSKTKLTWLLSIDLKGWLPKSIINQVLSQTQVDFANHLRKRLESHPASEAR

Compound | Aster-C (FP) inhibition (Aster-C) | ORP1 (FP) inhibition (ORP1) | STARD1 (FP) inhibition (STARD1) | inhibition at 10 µM (Aster-C) | inhibition at 10 µM (ORP1) | inhibition at 10 µM (STARD1)
C[C@]12CC[C@@H](O)C[C@H]1CCc1c2nc2ccc(Cl)cc2c1-c1ccccc1 [Compound 2e] | -5% | 2.5% | -8% |  |  | 
C[C@]12CC[C@@H](O)C[C@H]1CCc1c2[nH]c2ncccc12 [Compound 3] |  |  |  | -3.2% | -5.8% | -3.33%
C[C@]12CC[C@@H](O)C[C@H]1CCC[C@]21Nc2ccccc2-n2cccc21 [Compound 4] | -5.6% | 30.0% | 20% |  | 5.8% | 35%
C[C@]12CC[C@@H](O)C[C@H]1CCC[C@]21NC(=O)c2ccccc2N1 [Compound 5a] | -4% | 0.0% | 1.67% | 0% | -2.5% | -1.67%
C[C@]12CC[C@@H](O)C[C@H]1CCC[C@]21NC(=O)c2ccc(F)cc2N1 [Compound 5b] | -4% | -7.5% | 1.67% | -1.6% |  | 3.33%
COc1ccc2c(c1)C(=O)N[C@]1(CCC[C@@H]3C[C@H](O)CC[C@@]31C)N2 [Compound 5c] | -3.2% | -5.0% | -3.33% |  | 3.3% | 5%
C[C@]12CC[C@@H](O)C[C@H]1CCc1nc3ccccc3nc12 [Compound 7a] |  |  |  | 19% | 16.7% | 23%
Cc1cc2nc3c(nc2cc1C)[C@@]1(C)CC[C@@H](O)C[C@H]1CC3 [Compound 7b] |  |  |  | 0.8% | 0% | 12%
C[C@]12CC[C@@H](O)C[C@H]1CCc1nc3cc(F)c(F)cc3nc12 [Compound 7c] | -4% | -5.0% | 12% |  |  | 
C[C@]12CC[C@@H](O)C[C@H]1CCc1nc3cc(Cl)c(Cl)cc3nc12 [Compound 7d] | -4% | 1.7% | 17% |  |  | 
C[C@]12CC[C@@H](O)C[C@H]1CCc1nc3cc(Br)c(Br)cc3nc12 [Compound 7e] | 1.6% | 5.0% | 13% |  |  | 
C[C@]12CC[C@@H](O)C[C@H]1CCc1sc(N)nc12 [Compound 8a] |  |  |  | 0% | -9.2% | 5%
